Assay results taken from the NIST ThermoML archive (doi:10.1021/je800998u).
Numbers after ± are expanded uncertainties.

Assay: molar heat capacity at constant pressure
Details: 101.33 kPa, Liquid, Small (less than 1 g) adiabatic calorimetry

CC(C)COCC(C)C [diisobutyl ether]
Details | molar heat capacity at constant pressure [J/K/mol]
263.39 K | 262.95 ± 1.2
264.79 K | 263.61 ± 1.2
266.2 K | 263.86 ± 1.3
267.6 K | 264.22 ± 1.3
269 K | 264.8 ± 1.3
270 K | 265.3 ± 1.3
270.4 K | 265.39 ± 1.3
271.8 K | 265.93 ± 1.3
273.19 K | 266.68 ± 1.3
274.58 K | 266.81 ± 1.3
275.97 K | 267.53 ± 1.3
277.36 K | 267.85 ± 1.3
278.74 K | 268.3 ± 1.3
280 K | 269 ± 1.3
281.5 K | 269.6 ± 1.3
282.78 K | 270.45 ± 1.3
284.16 K | 270.8 ± 1.3
285.53 K | 271.08 ± 1.3
286.9 K | 271.46 ± 1.3
288.26 K | 271.98 ± 1.3
289.62 K | 272.75 ± 1.3
290 K | 272.8 ± 1.3
290.98 K | 273.36 ± 1.3
292.34 K | 273.73 ± 1.3
293.69 K | 274.04 ± 1.3
295.04 K | 275.21 ± 1.3
296.39 K | 275.08 ± 1.3
297.73 K | 275.64 ± 1.3
298.15 K | 276.08 ± 1.3
299.07 K | 276.44 ± 1.3
300 K | 276.8 ± 1.3
300.41 K | 277.1 ± 1.3
301.75 K | 277.51 ± 1.3
303.04 K | 278.07 ± 1.3
304.14 K | 278.56 ± 1.3
305.42 K | 279.01 ± 1.3
306.7 K | 279.35 ± 1.3
307.97 K | 279.87 ± 1.3
309.24 K | 280.81 ± 1.3
310 K | 280.8 ± 1.3
310.5 K | 280.87 ± 1.3
311.76 K | 281.46 ± 1.3
313.02 K | 282.03 ± 1.3
314.27 K | 282.55 ± 1.3
315.52 K | 282.93 ± 1.3
316.76 K | 283.81 ± 1.3
318 K | 284.25 ± 1.3
319.23 K | 284.87 ± 1.3
320 K | 285 ± 1.3
320.46 K | 285.2 ± 1.3
321.69 K | 285.88 ± 1.3
322.91 K | 286.38 ± 1.4
323.9 K | 286.65 ± 1.4
325.11 K | 287.21 ± 1.4
326.32 K | 287.74 ± 1.4
327.53 K | 288.35 ± 1.4
328.73 K | 288.89 ± 1.4
329.92 K | 289.24 ± 1.4
330 K | 289.5 ± 1.4
331.11 K | 289.99 ± 1.4
332.3 K | 290.62 ± 1.4
333.48 K | 291.36 ± 1.4
334.66 K | 291.41 ± 1.4
335.83 K | 292.26 ± 1.4
337 K | 292.85 ± 1.4
338.16 K | 293.71 ± 1.4
339.32 K | 294.5 ± 1.4
340 K | 294.7 ± 1.4
340.48 K | 295.14 ± 1.4
343.62 K | 297.13 ± 1.4
344.76 K | 297.38 ± 1.4
345.9 K | 297.62 ± 1.4
347.04 K | 298.5 ± 1.4
348.17 K | 299 ± 1.4
350 K | 300 ± 1.4
350.41 K | 300.11 ± 1.4
351.51 K | 300.37 ± 1.4
352.61 K | 301.47 ± 1.4
353.7 K | 302.2 ± 1.4
354.79 K | 302.27 ± 1.4
355.88 K | 302.92 ± 1.4
356.96 K | 303.07 ± 1.4
358.04 K | 303.49 ± 1.4
359.11 K | 304.07 ± 1.4
359.83 K | 304.07 ± 1.4
360 K | 304.4 ± 1.4
360.9 K | 304.89 ± 1.4
361.96 K | 305.2 ± 1.4
363.02 K | 305.35 ± 1.4
364.07 K | 305.71 ± 1.4
365.12 K | 305.76 ± 1.4
366.14 K | 306.97 ± 1.4
367.16 K | 307.23 ± 1.4
368.17 K | 308 ± 1.4
369.17 K | 308.72 ± 1.4
370 K | 308.9 ± 1.4
370.15 K | 309.38 ± 1.4
371.14 K | 309.88 ± 1.4
372.11 K | 310.26 ± 1.4
